The source of these data is US20080096967A1, “Formulations for Injection of Catecholic Butanes, Including Ndga Compounds, Into Animals” (priority 2005, published 2008).

A short description of the data set: Compatibility of IV tubing for delivery of M4N (visual inspection and HPLC). Conditions: PTFE and fluorelastomer, polypropylene, FEP, polyethylene, platinum cured silicone (small size). How it is done:
In this experiment, various types of tubing were tested for compatibility and for optimizing intravenous delivery of M4N. The tests on compatibility were based on visual inspection and HPLC (high pressure liquid chromatography) analysis.
The visual inspection was conducted as follows: About 5 mL of a formulation to be tested (“formulated material”) were passed through a tubing of about 20 cm in length. The formulated material was kept inside the tube for about 24 hr at room temperature (25° C.). The formulated material was then circulated several times (about 5 times, for example) through the tubing and was collected in a beaker or a collection tube. The formulated material was carefully inspected for precipitates or particulates present, including by holding the beaker or collection tube against a white background followed by a dark background.
The compatibility test using HPLC analysis varied in the methodology depending on the tubing being tested, the length of time and the purpose of the tubing. This test measured the amount of M4N in solution before and after circulation through different tubing.

Take `COc1ccc(C[C@@H](C)[C@@H](C)Cc2ccc(OC)c(OC)c2)cc1OC` [Formulation M4N, meso-1,4-bis(3,4-dimethoxyphenyl)-2,3-dimethylbutane]: the “compatibility of tubing for delivery of M4N (threshold about 90% of M4N remaining in solution)” value is on record as “compatible”.
